The target in test [1] is T1, Dimer of Gag-Pol polyprotein [489-587] (Human immunodeficiency virus 1, UniProt P12497).
T1 construct: 489-587
Kind of test: Protease Inhibition Assay. Conditions: pH 5.5; 22 °C. From the text: (§1) In the presence of HIV-l protease, the substrate is rapidly cleaved into two parts. The biotinylated amino terminal fragment binds to the avidin Pandex beads while the FITC-containing carboxy1 terminal fragment is removed through the membrane.

In test [2] the target is T2, Gag-Pol polyprotein [489-587] (Human immunodeficiency virus 1, UniProt P04585).
T2 construct: 489-587

The target in test [3] is T2, Gag-Pol polyprotein [489-587]. The test can be described thus: Protease Inhibition Assay.
Description: as §1

With `CC(C)(C)NC(=O)[C@@H]1C[C@@H]2SCC[C@@H]2CN1C[C@@H](O)[C@H](Cc1ccccc1)NC(=O)[C@@H](CS(=O)(=O)c1ccc2ccccc2c1)NC(=O)C(F)(F)F` [(3aR,6S,7aS)-N-tert-butyl-5-[(2R,3S)-2-hydroxy-3-[(2S)-3-(naphthalene-2-sulfonyl)-2-(2,2,2-trifluoroacetamido)propanamido]-4-phenylbutyl]-octahydrothieno[3,2-c]pyridine-6-carboxamide], the IC50 in test [1] and in test [2] was less than 0.2 nM each time.
Turning to `CC(C)(C)NC(=O)[C@@H]1C[C@@H]2CCCC[C@@H]2CN1C[C@@H](O)[C@H](Cc1ccccc1)NC(=O)[C@@H](C[S+]([O-])c1ccc(F)cc1)NS(C)(=O)=O` (stereo partly drawn) [(3S,4aS,8aS)-N-tert-butyl-2-[(2R,3S)-3-[(2S)-3-[(4-fluorobenzene)sulfinyl]-2-methanesulfonamidopropanamido]-2-hydroxy-4-phenylbutyl]-decahydroisoquinoline-3-carboxamide], the IC50 in test [1] and in test [3] was 0.6 nM in each case.
Turning to `CC(=O)N[C@H](CS(=O)(=O)c1ccc2ccccc2c1)C(=O)N[C@@H](Cc1ccccc1)[C@H](O)CN1C[C@H]2CCS[C@H]2C[C@H]1C(=O)NC(C)(C)C` [(3aR,6S,7aS)-N-tert-butyl-5-[(2R,3S)-3-[(2S)-2-acetamido-3-(naphthalene-2-sulfonyl)propanamido]-2-hydroxy-4-phenylbutyl]-octahydrothieno[3,2-c]pyridine-6-carboxamide], the IC50 in test [1] and in test [3] was 0.5 nM each time.
Regarding `CC(C)CN(C[C@@H](O)[C@H](Cc1ccccc1)NC(=O)[C@@H](C[S+]([O-])c1ccc2ccccc2c1)NS(C)(=O)=O)C(=O)NC(C)(C)C` (stereo partly drawn) [(2S)-N-[(2S,3R)-4-[(tert-butylcarbamoyl)(2-methylpropyl)amino]-3-hydroxy-1-phenylbutan-2-yl]-2-methanesulfonamido-3-(naphthalene-2-sulfinyl)propanamide], the IC50 in test [1] and in test [3] was 2.1 nM in each case.
On to `CC(C)(C)NC(=O)[C@@H]1C[C@@H]2SCC[C@@H]2CN1C[C@@H](O)[C@H](Cc1ccccc1)NC(=O)[C@@H](CS(=O)(=O)c1ccc(F)cc1)NS(C)(=O)=O` [(3aR,6S,7aS)-N-tert-butyl-5-[(2R,3S)-3-[(2S)-3-[(4-fluorobenzene)sulfonyl]-2-methanesulfonamidopropanamido]-2-hydroxy-4-phenylbutyl]-octahydrothieno[3,2-c]pyridine-6-carboxamide], for which the IC50 in test [1] and in test [3] was 0.22 nM in each case.
With `CC(C)(C)NC(=O)[C@@H]1C[C@@H]2CCCC[C@@H]2CN1C[C@@H](O)[C@H](Cc1ccccc1)NC(=O)[C@@H](CS(=O)(=O)c1ccc2ccccc2c1)NS(C)(=O)=O` [(3S,4aS,8aS)-N-tert-butyl-2-[(2R,3S)-2-hydroxy-3-[(2S)-2-methanesulfonamido-3-(naphthalene-2-sulfonyl)propanamido]-4-phenylbutyl]-decahydroisoquinoline-3-carboxamide], the IC50 in test [1] and in test [3] was 0.5 nM in each case.
With `CC(C)(C)NC(=O)[C@@H]1C[C@@H]2SCC[C@@H]2CN1C[C@@H](O)[C@H](CSc1ccccc1)NC(=O)[C@@H](CS(=O)(=O)c1ccc2ccccc2c1)NC(=O)C(F)(F)F` [(3aR,6S,7aS)-N-tert-butyl-5-[(2R,3R)-2-hydroxy-3-[(2S)-3-(naphthalene-2-sulfonyl)-2-(2,2,2-trifluoroacetamido)propanamido]-4-(phenylsulfanyl)butyl]-octahydrothieno[3,2-c]pyridine-6-carboxamide], the IC50 in test [1] and in test [3] was 1.8 nM in each case.

The values are drawn from BindingDB's records for doi:10.7270/Q22F7KMG (Eli Lilly, 1995).
